Legend:
pS2 gene chromatin = assay: Chromatin immunoprecipitation (ChIP), pS2 promoter; type: cell-based, human; settings: DLC1 overexpression in MCF-7/DLC1 cells
Description: FIG. 14A: Characterization of MCF-7 cells expressing T7-DLC1 under a tet-inducible promoter. Time and dose dependent upregulation of Dox-mediated T7-DLC1 expression. FIG. 14B: DLC1 deregulation potentiates stimulation of Bcl-2 by E2 and by Tam. […] FIG. 14C: DLC1 upregulation suppress Tam ability to inhibit E2-mediated ER transactivation. MCF-7/DLC1 cells were transfected with ERE-luc. […] FIG. 14D: DLC1 deregulation potentiated E2-mediated stimulation of ERE-luc activity in Ishikawa and MCF-7/TAMR1 cells. […] FIG. 14E: Recruitment of DLC1 and ERá to the pS2 promoter chromatin. MCF-7/DLC1 cells were treated with or without Dox for 24 and then with E2 (10^−9M) for 1 h. Chromatin lysates were immunoprecipitated with anti-ER-á or anti-T7 (to detect T7-DLC1) antibodies. Upper panels show the PCR analysis of 304 bp pS2 promoter fragment associated with ER or T7-DLC1.
To delineate the significance of the DLC1 in the modulation of ER transactivation, the effect of T7-DLC1 deregulation on the recruitment of ER to the ER-target pS2 gene promoter chromatin using a chromatin immunoprecipitation (ChIP) assay with anti-ERα or anti-T7 antibodies was examined. […] When the above ChIP studies were repeated using T7 antibody to isolate T7-DLC1, it was observed that both basal and ligand-activated DLC1 were also recruited to pS2 gene chromatin (FIG. 14E). […]

DLC1 promoter = DLC1 promoter luciferase reporter; type: cell-based, human; settings: Ishikawa cells, 24 h
Description: FIGS. 21A–21J—Estrogenic signals upregulate DLC1 expression via Pak1 pathway. FIG. 21A: DLC1 upregulation by E2 or Tam. MCF-7/Tam-sen, MCF-7/TAMR1 and Ishikawa cells were treated with E2 (10^−9M) or Tam (10^−9M) for 24 h, and cell lysates were assayed for DLC1 and Pak1 protein expression. FIG. 21B: Upregulation of DLC1 mRNA in MCF-7 cells treated with different doses of E2 for 24 h. FIG. 21C: Effect of different periods of E2 treatment and cycloheximide (CHX) and Actinomycin D (ACTD) treatment on the ability of E2 to upregulate DLC1 mRNA in MCF-7 cells. FIG. 21D: DLC1 mRNA and protein levels in MCF-7/DA-Pak1 cells by Northern and Western blotting. FIG. 21E: DLC1 mRNA and protein levels in MCF-7/DN-Pak1 cells by Northern and Western blotting. FIG. 21F: Downregulation of DLC1 protein expression in MCF-7 cells treated with Pak1-siRNA for 24 h. FIG. 21G: Modulation of DLC1 promoter (1245 bp) luc activity by the expression of wtPak1 or DN-Pak1. MCF-7 cells were transfected with DLC1-luc and transfected with either wtPak1 or Pak1 inhibitor 83-149 and luc activity was measured after 24 h. FIG. 21H: Upregulation of DLC1 promoter luc activity following pak1 induction in MCF-7/DA-Pak 1 cells. FIG. 21I: Downegulation of DLC1 promoter luc activity in MCF-7/DN-pak1 cells. […]

ZR75 cells = assay: Tumorigenicity of stably expressing ZR75 cells in nude mice; type: in vivo; settings: 5×10^6 cells, no exogenous estradiol
Description: FIGS. 6A–6E—DLC1/PIN overexpression potentiates anchorage-independent growth and promotes tumorigenesis. FIG. 6A: Effect DLC1/PIN expression on anchorage-independent growth of ZR75 cells. The anchorage-independent growth potential of DLC1/PIN-expressing clones was measured by the ability of the cells to form colonies on soft agar. […] Error bars represent standard error of mean. FIG. 6B: Western blot analysis of the expression of DLC1/PIN and Pak1 in lysates from cells derived from MCF10AT model system. […] FIG. 6C: Nude mice were injected with 5×10^6 cells stably expressing pcDNA or wild type DLC1/PIN (clone#2) or mutant DLC1/PIN^del88-89 and tumor growth was measured at weekly intervals. […] Tumor growth was only observed in cells expressing wild type DLC1/PIN but not detected in mutant expressing cells. FIG. 6E: Morphology of tumor and expression of T7-DLC1/PIN in DLC1/PIN-induced tumors as measured by H&E and anti T7 staining respectively.
Cell proliferation, soft-agar, and tumorigenicity assays. […] For xenograft studies, 5×10^6 cells were implanted subcutaneously into mammary fat-pads of 10 nude mice, as previously described (Bagheri et al., 2001), and allowed to grow for 20 weeks; tumor size was then measured. […]

| Molecule | ER interaction with the pS2 gene chromatin (pS2 gene chromatin) | DLC1 promoter activity (DLC1 promoter) | tumorigenic potential (ZR75 cells) |
| --- | --- | --- | --- |
| CC/C(=C(\c1ccccc1)c1ccc(OCCN(C)C)cc1)c1ccccc1 [tamoxifen] | enhanced ER interaction | stimulated | – |
| DLC1/PIN^del 88-89: DLC1/PIN mutant in which Ser88 and amino acid 89 were deleted | – | – | did not exhibited any tumorigenic potential |

From US7067633B2, “Targeting cellular entry, cell survival, and pathogenicity by dynein light chain 1/PIN in human cells” (Board of Regents, The University of Texas System, priority 2003, dated 2006)
